Experimental data from PubChem BioAssay AID1159557 (GlaxoSmithKline (GSK), 2015).
pIC50: −log10 of the molar value. The source made the active and inactive calls. The rule behind the calls is not given here.

Tested on: Trypanosoma brucei growth inhibition
Test: trypanosome proliferation inhibitors (AID 1159557);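 note: parasites exposed to compound for 48 h before the resazurin readout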

SMILES | pIC50 | IC50
O=C(COc1ncnc2cc([N+](=O)[O-])ccc12)NC(=O)NC1CCCCC1 | 5.20 | 
Cc1cc(C)n(-c2nc(NC(C)(C)C)nc(N3CCOCC3)n2)n1 | 4.89 | 
C=CCN(Cc1cccs1)C(=O)CSc1nnc(-c2ccc3c(c2)OCO3)o1 | 4.70 | 
c1ccc(CNc2cccc3ccncc23)cc1 | 4.60 | 
COc1ccccc1CNc1cc(C2CC2)nc(-c2nccn2C)n1 | 5.60 | 
O=S(=O)(NCC(c1cccnc1)N1CCN(c2ccc(F)cc2)CC1)c1cccs1 (stereo not drawn) |  | > 40 µM (inactive)
N#Cc1ccc(C(=O)Nc2cccc(-c3cccc(CN4CCC(O)CC4)c3)c2)cc1 | 6.10 | 
CC(C)c1nn(-c2nc(N)nc(-c3ccccn3)n2)c(N)c1C1CCCCC1 | 5.10 | 
Cc1ccc(S(=O)(=O)Nc2ccc(CN3CCN(C(=O)c4cccc(C)c4)CC3)cc2)cc1 | 6.60 | 
COc1ccc(C(C)N(C)c2ncc3c(N)nc(N)nc3n2)cc1F (stereo not drawn) | 4.89 | 
CCCNC(=O)Nc1cccc(-c2nc3ncccc3o2)c1 | 6.30 | 
CCc1cc(C(=O)Nc2nccn2-c2ccccc2)cs1 | 5.49 | 
Cc1ccccc1NS(=O)(=O)c1ccc2[nH]cc(C(=O)NC3CCCC3)c(=O)c2c1 | 6.49 | 
Cn1nc(C(=O)N2CCc3ccccc32)c2c1CCS(=O)(=O)C2 | 5.40 | 
O=C(NCC(c1cccnc1)N1CCc2ccccc2C1)C(=O)Nc1cccc(Cl)c1 (stereo not drawn) | 4.80 | 
COc1ccc2nccc([C@H](O)CN3CC[C@H](NC(=O)c4ccc(Br)cc4)[C@@H](O)C3)c2n1 | 6.70 | 
CCS(=O)(=O)Nc1ccc(C2=NN(C(=O)c3cccs3)C(c3ccccc3OC)C2)cc1 (stereo not drawn) | 5.30 | 
Cc1ccc2sc(NC(=O)Cn3cnc([N+](=O)[O-])n3)nc2c1 | 4.60 | 
CCc1ccccc1[C@@H](C)NC(=O)c1cnc2c(cnn2CC)c1NC1CCN(C(N)=O)CC1 | 6.60 | 
COc1cccc(C(=O)[C@H]2C[C@@H]2CN(Cc2cccnc2)Cc2cccnc2)c1 | 4.49 | 
Cc1ccccc1OCC(=O)N1CCCN(c2cccnn2)CC1 |  | > 40 µM (inactive)
COc1cnc2ccc(=O)n(CCN3CCC(NC(=O)Cc4ccc(Cl)c(Cl)c4)CC3)c2c1 | 6.60 | 

SMILES | pIC50 | IC50
O=C(NCCc1ccn(-c2ccccc2)n1)C1CCCCC1 | 6.60 | 
Cn1c(CN2CCN(c3ncc(C(F)(F)F)cc3Cl)CC2)nc2ccncc21 | 5.20 | 
NCc1ccc2c(Cl)cc(Cl)c(O)c2n1 | 6.40 | 
C[C@@H](Oc1cc(-n2cnc3ccc(O[C@H]4CCNC4)cc32)sc1C(N)=O)c1ccccc1Cl | 6.60 | 
CCN(Cc1ccncc1)Cc1ccc(NC(=O)c2cc(-c3ccc(F)cc3)n[nH]2)cc1 |  | > 40 µM (inactive)
COc1ccc(OC)c(S(=O)(=O)N(Cc2c(F)cccc2F)[C@@H]2CCN(C#N)C2)c1 | 6.20 | 
CN(CC1CCCO1)S(=O)(=O)c1ccc(C(=O)Nc2nc(-c3ccccn3)cs2)cc1 (stereo not drawn) | 6.30 | 
O=C(NCc1ccc(-n2cccc2)cc1)c1nc(Cn2ccc([N+](=O)[O-])n2)no1 |  | > 40 µM (inactive)
O=c1cc(CSc2ccc(Cl)cc2)nc(-c2ccccn2)[nH]1 | 6.10 | 
COc1ccc(C(=O)Nc2ccc(NC(=O)CO)cc2)cc1 | 6.60 | 
COc1ccc(C2=NCC(CSc3nnc(-c4ccc5c(c4)OCO5)o3)S2)cc1 (stereo not drawn) | 5.00 | 
O=c1[nH]ccc2ccc(-c3ccncc3)cc12 | 4.49 | 
N#Cc1cc([N+](=O)[O-])ccc1NC1CCCCCC1 | 5.60 | 
CCc1c(C)nc(-n2nc(C)cc2NC(=O)COc2ccccc2F)[nH]c1=O | 6.80 | 
Cc1c(C(=O)NCCCCn2ccnc2)oc2c(C)cccc12 | 4.70 | 
N#Cc1ccc(S(=O)(=O)N2CCN(Cc3cccc(-c4ccncc4)c3)CC2)cc1 |  | > 40 µM (inactive)
O=C(CN(c1cccc(C(F)(F)F)c1)S(=O)(=O)c1ccc(Cl)cc1)NCc1ccc(F)c(F)c1 | 5.00 | 
CN(Cc1nc2c(C(=O)N3CCN(Cc4ccccc4)CC3)cccc2[nH]1)C1CCCc2cccnc21 (stereo not drawn) | 6.20 | 
CNC(=O)C1Cc2ccccc2N1C(=O)COc1cccc(OC)c1 (stereo not drawn) | 6.20 | 
CC(=O)Nc1cccc(Nc2ncnc3nc[nH]c23)c1 | 6.89 | 
c1cncc(CN(Cc2ccco2)Cc2cn[nH]c2-c2cccs2)c1 | 4.60 | 
CN(CCOc1ccc(Cl)cc1)Cc1nc(N)nc(N(C)C)n1 | 4.60 | 

SMILES | pIC50 | IC50
Cc1cccc(N2CCCN(Cc3c[nH]c4ccccc34)CC2)n1 | 4.89 | 
CCN(CC)S(=O)(=O)c1ccc(OC)c(NC(=O)c2ccc([N+](=O)[O-])s2)c1 | 6.40 | 
O=C(c1cccc(Cl)c1Cl)N1CCn2c1nc(-c1ccncc1)cc2=O | 4.80 | 
CNc1nc(C)nc(N2CCc3cc(C(=O)NCc4ccc(-c5ccn[nH]5)cc4Cl)ccc32)n1 | 4.89 | 
O=C(O)[C@H]1C[C@@H]1c1ccc(-c2ccc(CN(CCc3ccccn3)C(=O)C3CCC3)cc2)cc1 | 6.20 | 
O=C(CCCn1cnc([N+](=O)[O-])n1)Nc1cccc(Cl)c1 | 5.30 | 
COc1ccc(-c2cc(C)no2)cc1S(=O)(=O)Nc1ccc(F)c(Cl)c1 | 4.80 | 
N#Cc1cccc(CN2CCC(c3nc(-c4ccc(C(F)(F)F)nc4)no3)CC2)c1 |  | > 40 µM (inactive)
COCc1cc(Nc2ccccc2)nc(-c2ccccn2)n1 |  | > 40 µM (inactive)
COc1ccc(C)cc1-c1csc(NC(=O)C(C)n2ccnc2)n1 (stereo not drawn) | 4.60 | 
Cc1cc2cc(CNc3ccc4c(c3)OCO4)c(=O)n(CCO)c2cc1C | 4.60 | 
CCc1ccc2nc(NC(=O)c3cc(N4CCOCC4)ccn3)sc2c1 | 6.30 | 
Cc1cc(N(C)C)nc(Nc2ccccc2C)n1 | 4.49 | 
Cc1cc(Oc2cc(Cl)c(Cl)cc2Cl)n2ncnc2n1 | 6.10 | 
O=C1OCc2ccc(Nc3nccc(-c4cnn5ncccc45)n3)cc21 | 8.40 | 
COc1ccc(CNc2cc(C3CC3)nc(-c3nccn3C)n2)cc1 | 5.89 | 
Cc1cc(C)nc(N2CCC(N(Cc3cccnc3)C(=O)c3cccc(C#N)c3)CC2)n1 |  | > 40 µM (inactive)
Cc1ccc(C)c(CN2C(=O)NC3(CCc4ccccc43)C2=O)c1 (stereo not drawn) | 6.30 | 
CCN(Cc1cccs1)C(=O)CSc1nnc(-c2ccc3c(c2)OCO3)o1 | 4.60 | 
CS(=O)(=O)N1CCC(Nc2ncc(Br)c(Nc3cccc(F)c3C(N)=O)n2)CC1 | 8.00 | 
O=C(Cc1ccc2c(c1)CCC2)Nc1n[nH]c(-c2ccccn2)n1 | 4.70 | 
CCCN(Cc1ccc(OC)c(OC)c1)Cc1cc(=O)c2c(C)cc(C)cc2[nH]1 | 4.60 | 

SMILES | pIC50 | IC50
CCNc1cc(-c2ccccn2)nc(Nc2ccc(OC)cc2)n1 | 4.89 | 
O=C(NCC1CCCCC1)c1cnns1 | 6.00 | 
O=C(NCC1CCCCC1)c1cc(=O)c2ccccc2o1 | 6.00 | 
c1ccc(-c2nc(NCc3ccco3)c3ccccc3n2)nc1 |  | > 40 µM (inactive)
CS(=O)(=O)c1ccc(Nc2nccc(-c3cnn4ncccc34)n2)cc1 | 6.80 | 
O=C(CSc1ccc(F)cc1)N[C@@H](Cc1cnc[nH]1)C(=O)NCCc1ccccc1 |  | > 40 µM (inactive)
O=C(C1CCCCC1)N1CCN(c2nnc(-c3ccccc3)c3ccccc23)CC1 | 5.00 | 
O=C(c1ccc(O)c(Cl)c1)N1CCN(c2cnccn2)CC1 |  | > 40 µM (inactive)
Nc1nc(-c2ccccn2)nc(N)c1Cc1c(F)cccc1Cl | 5.60 | 
CCCc1cc(C(=O)Nc2ncc(-c3cccc(Br)c3)n2C)n[nH]1 | 5.60 | 
COc1ccc2ncc(=O)n(CCN3CCOC(CNCc4ccc(C(F)(F)F)cc4F)C3)c2n1 (stereo not drawn) | 6.20 | 
Cc1[nH]n2c(=O)c3c(nc2c1-c1ccc(F)cc1)CCCC3 | 6.40 | 
CCCCn1nnnc1CSc1nc(C)cc(C)c1C#N |  | > 40 µM (inactive)
O=C(NC1C(=O)N(c2ccccc2)C1c1cccnc1)c1ccc(Cl)s1 (stereo not drawn) |  | > 40 µM (inactive)
CN(C)S(=O)(=O)c1cccc(CSc2nnc(-c3ccc4c(c3)OCO4)o2)c1 | 4.49 | 
CC(C)C[C@H](NC(=O)c1csc(-c2cccs2)n1)C(=O)NC1(C#N)CC1 | 6.80 | 
OCCCNc1nc(Nc2ccncc2)nc2ccccc12 | 4.60 | 
Cc1nc2c(-c3ncn[nH]3)cc(NC(=O)Cc3ccccc3)cn2c1C | 5.49 | 
CC1CCCN(S(=O)(=O)c2ccc(C(=O)Nc3nc(-c4ccccn4)cs3)cc2)C1 (stereo not drawn) | 6.70 | 
CCc1cccc(CC)c1-n1c(SCC(=O)NC(=O)NCc2ccco2)nnc1-c1cccnc1 | 6.40 | 
Cc1nc(N2CC(C)OC(C)C2)sc1C(=O)Nc1ccc2c(c1)OCO2 (stereo not drawn) | 4.40 | 
O=[N+]([O-])c1ccc(C2=CC(c3ccccc3)=NCCN2)cc1 | 5.20 | 

SMILES | pIC50 | IC50
COc1cc(F)c2ncc(F)c(CCN3CC[C@H](NCc4cc5c(cn4)OCS5)[C@@H](O)C3)c2c1 | 6.60 | 
CC(=O)Nc1nc(-c2cc(C)ccc2C)c(C)s1 |  | > 40 µM (inactive)
O=c1[nH]c(NCCCNCc2cc(Br)cc(Br)c2)nc2ccsc12 | 7.00 | 
Clc1ccc(CN2CCN(C3=NCCN3)CC2)cc1Cl |  | > 40 µM (inactive)
COc1ncc(-c2ccc3nccc(-c4ccncc4)c3c2)cc1NS(=O)(=O)C1CC1 | 6.70 | 
O=C(NCc1nnc2n1CCCCC2)c1ccc(-c2ccc(F)cc2)o1 | 6.89 | 
O=S(=O)(c1ccccc1C(F)(F)F)N1CCN(Cc2ccc(-n3ccnc3)cc2)CC1 |  | > 40 µM (inactive)
O=c1cc(NCCCNCc2c[nH]c3ccc(Br)cc23)[nH]c2ccccc12 | 6.00 | 
Cc1nc2c(-c3nc(-c4ccc(N)cc4)n[nH]3)cccn2c1C | 4.89 | 
O=S(=O)(c1cccc(CSc2nnc(-c3ccc4c(c3)OCO4)o2)c1)N1CCOCC1 | 4.49 | 
O=C(CSc1ccc(-c2ccccn2)nn1)Nc1ccc(Cl)cc1 | 5.00 | 
COc1ccc(S(=O)(=O)Nc2ccccc2OC)cc1NC(=O)CCCc1c[nH]c2ccccc12 | 4.89 | 
O=C(CN(Cc1ccccn1)Cc1ccccn1)NCc1csc(-c2cccs2)n1 | 4.70 | 
CNc1cncc(C2CCCN2C(=O)Cc2ccc3ccccc3c2)n1 (stereo not drawn) |  | > 40 µM (inactive)
C[C@@H](Oc1cc(-n2cnc3ccc(C(O)CO)cc32)sc1C(N)=O)c1ccccc1C(F)(F)F (stereo partly drawn) | 6.40 | 
Cc1nn(-c2nc3ccccc3s2)c2c1C(c1ccc(OCC(N)=O)cc1)SCC(=O)N2 (stereo not drawn) | 7.70 | 
NC(=O)c1ncc(N[C@@H]2CCCNC2)nc1Nc1cccc(Cl)c1 | 6.89 | 
O=C(NCCCn1cnc2ccccc21)c1ccc(NC(=O)c2ccco2)cc1 | 6.70 | 
CN(C)Cc1ccc(-c2ccc(S(=O)(=O)NCC3CCCO3)c(F)c2)cc1 (stereo not drawn) | 4.60 | 
CC(c1ccccn1)N(C)Cc1nc2ccccc2n1C(C)C (stereo not drawn) | 4.89 | 
